Broadly, the melting point is the temperature of the solid-liquid transition.

In turn, `CCOC(=O)/C=C/S(=O)(=O)c1ccc(C(C)(C)C)cc1` returned a melting point of 88 to 91 °C.

On to `O=C(NC(CO)CO)c1cnccc1C(F)(F)F`, for which the melting point lay in the range of 155 to 156 °C.

`C=CCN1Cc2nc3c(cnn3CCCC#CC)c(N)c2C1=O` gave a melting point of 138 to 140 °C.

On to `CCCCCCCCCCCCCCC(=O)C(=O)N[C@H](C(=O)NCC(=O)O)C(C)C`, for which the melting point fell in the range of 87 to 89 °C.

Turning to `CCCCc1ncc(/C=C(\Cc2cccs2)C(=O)O)n1Cc1ccc(OC)c(C)c1`, the melting point lay in the range of 140 to 141 °C.

Compound `COC(=O)C=CC1C(C(=O)OC(C)(C)C)C1(C)C` (configuration not stated) gave a melting point of 67 °C.

`Oc1cccc(-n2cnc(-c3ccccc3)c2)c1` displayed a melting point of 195 to 197 °C.

In turn, `Cc1ncsc1C(=O)Nc1ccc(-n2nc(C(F)(F)F)cc2C2CC2)c(F)c1` gave a melting point of 95 to 97.6 °C.

With `CN(C)C1CCCN(C(=O)c2ccc(NC(=O)Cc3ccccc3Cl)cc2)c2ccccc21` (configuration not stated), the melting point lay within 187 to 189 °C.

Turning to `CCC(CC)Nc1c(NCc2cc(C)cc(C#N)c2)c(=O)c1=O`, the melting point was 248 to 250 °C.

The compound `CN(C)C1(c2ccccc2)CCC2(OCCc3c2[nH]c2ccc(F)cc32)C(Cc2cccc(F)c2)C1` (configuration not stated) displayed a melting point of 133 to 135 °C.

In the case of `CC#CCOc1nsc(-c2cccc(F)c2)n1`, the melting point stood at 68.7 °C.

Take `COCc1cc(Oc2c(Cl)cc(C(F)(F)F)cc2Cl)n[nH]1`: the melting point lay within 141 to 143 °C.

Consider `O=C(Cc1cccc(C(=O)O)c1)Nc1cccc(/C=C/c2nc(C3CCC3)cs2)c1`, for which the melting point lay within 208 to 209 °C.

On to `COc1cc2c(cc1OS(=O)(=O)C(F)(F)F)[nH]c1cc(-c3ccccc3Cl)c3c(c12)C(=O)NC3=O`, for which the melting point fell in the range of 248 to 252 °C.

The compound `Cc1cc2n(n1)-c1ccc(Cl)cc1C(c1ccccc1)NC2=O` (configuration not stated) gave a melting point of 258 to 261 °C.

The compound `C#CCOc1c(OC)cc(/C=C/C(=O)/C=C/c2cc(OC)c(OCC#C)c(OC)c2)cc1OC` returned a melting point of 162 to 164 °C.

`CC(C)(C)c1cc(CC=Cc2ccccc2)c(O)c(C(C)(C)C)c1` gave a melting point of 89 °C.

`C=CCOCCc1ccc(OCC(O)CNC(C)C)cc1` (configuration not stated) displayed a melting point of 52 to 53 °C.

Turning to `Cn1cc(-c2ccc3c(c2)C(C)(C)CCC3(C)C)cc1C=CC(=O)O`, the melting point was in the range of 165 to 166 °C.

Take `CC(=O)NC1CCc2c([nH]c3ccc(F)cc23)C1` (configuration not stated): the melting point was 209 to 210 °C.

`CCCCc1nc(Cl)c(C(=O)O)n1Cc1ccc2oc(-c3ccccc3-c3nnn[nH]3)c(C(C)(C)C)c2c1` came in with a melting point of 129 to 132 °C.

As for `CCCc1nc2c(N)nc3ccccc3c2n1CC(C)C`, the melting point was 191 to 192 °C.

As for `O=C1NC(=O)C(Cc2ccc(OCc3nc4cccnc4n3Cc3ccc(Cl)cc3)cc2)S1` (configuration not stated), the melting point was in the range of 211 to 213 °C.

As for `CCOC(=O)c1c(CCn2cncn2)nc2sc3c(c2c1-c1ccc(OC)c(OC)c1)CCN(C(=O)c1ccc(Cl)cc1)C3`, the melting point fell in the range of 195 to 197 °C.

For the compound `O=C(O)CC[C@@H](Cc1cn(CCCc2ccccc2)c2ccccc12)NC(=O)CCCCCCc1ccccc1`, the melting point lay in the range of 100 to 102 °C.

`CC(C)(C)OC(=O)CN1CC(c2ccsc2)SCC(N)C1=O` (configuration not stated) displayed a melting point of 115 to 117 °C.

For `O=C(Nc1ccccc1S(=O)(=O)N1CCCCC1)N[C@@H](Cc1ccc(Nc2nccc3ccncc23)cc1)C(=O)O`, the melting point worked out at 179 °C.

In turn, `Cc1noc(NS(=O)(=O)c2ccccc2-c2ccc(-c3ncco3)cc2CN(C)C(=O)c2cccc(F)c2)c1C` returned a melting point of 125 to 135 °C.

As to `CC(C)OCCN1C(=O)N2CCOC2(c2ccccc2)c2cc([N+](=O)[O-])ccc21` (configuration not stated), the melting point was in the range of 123 to 124 °C.

For `COC(=O)c1[nH]c(C)c(C)c1O`, the melting point lay within 170 to 172 °C.

In the case of `NP(N)(=O)NC(=O)c1ccc(F)cc1`, the melting point lay within 255 to 257 °C.

For the compound `CCOCc1nc2c(N)nc3cc(-c4ccccc4)ccc3c2n1CC(C)(C)NS(C)(=O)=O`, the melting point lay within 239 to 242 °C.

In turn, `CCOC(=O)C(C)=CC=CC(C)=CC=CC=C(C)C=CC=C(C)C1OCC(C)(C)CO1` came in with a melting point of 158 °C.

In turn, `COc1ccc2c(c1)C(CCNC(=O)C(F)(F)F)C1(CC2)Cc2ccccc2C1` (configuration not stated) showed a melting point of 149 to 152 °C.

On to `CC1(C)CC(=O)c2c(Br)cn(-c3ccccn3)c2C1`, for which the melting point was in the range of 166 to 168 °C.

In turn, `Cc1nc(-c2ccccc2)n(-c2ccc(S(N)(=O)=O)cn2)n1` showed a melting point of 203 to 204 °C.

Consider `O=C1c2ccccc2C(Nc2ccccn2)N1CCCN1CC=C(c2ccccc2)CC1` (configuration not stated), for which the melting point is 153 °C.

For the compound `CCCc1cc(=O)on1C(=O)c1ccc(Cl)cc1Cl`, the melting point is 63 to 65.5 °C.

With `Nc1cccc(/C=C/c2nc(C3CCCC3)cs2)c1`, the melting point is 59 to 61 °C.

Consider `Cc1cc(F)ccc1-c1cncc(OC2SCC(O)C(O)C2O)c1` (configuration not stated), for which the melting point turned out to be 217 °C.

Compound `O=C(OC1C2CN(Cc3ccccc3)CC1CN(C(=O)c1ccc([N+](=O)[O-])cc1)C2)c1ccccc1` (configuration not stated) registered a melting point of 180 °C.

`O=C(Nc1ccccc1)OCC1c2ccccc2Oc2ccccc21` yielded a melting point of 180 to 181 °C.

Regarding `CC(C)OC(=O)C(Cl)(Cl)P(=O)(OC(C)C)c1ccccc1` (configuration not stated), the melting point was 42 to 44 °C.

The compound `O=C=Nc1ccc(C(=S)OC2CCCCC2)c(Cl)c1` showed a melting point of 60 to 65 °C.

`CN1C(=O)Cn2cc(C(=O)NCc3ccc(F)cc3)c(=O)c3cc(CN4CCOCC4)cc1c32`: the melting point lay in the range of 222 to 224 °C.

With `CC1(C#CC2(C(F)(F)F)c3cc(Cl)ccc3NC(=O)N2C2CC2)CC1` (configuration not stated), the melting point lay within 218 to 220 °C.

`O=S(c1ccncc1)C1CCNCC1` (configuration not stated) showed a melting point of 73 to 76 °C.

In turn, `CCCCNc1cc(-c2c(-c3cccc(C)c3)nc3cccnn23)ccn1` displayed a melting point of 128 to 129 °C.

In the case of `CC(C)OC(=O)C(C(N)=O)=C1SCS1`, the melting point fell in the range of 128 to 129 °C.

Turning to `CCOC(=O)c1nc2cc(NC(=O)OC(C)(C)C)ccn2n1`, the melting point was 220 to 222 °C.

In the case of `C#CCN(c1ccc(C(=O)O)cc1)C1CCc2cc3nc(C)[nH]c(=O)c3cc21` (racemic), the melting point was found to be 264 °C.

Compound `N=C(NO)c1cnc(N)nc1` showed a melting point of 218 °C.

The compound `CNC(=O)c1cc2c(Oc3ccc(-n4cccn4)cc3)cncc2s1` registered a melting point of 192 to 194 °C.

As to `Cc1ccc(CNc2nc(Cl)nc(OCC(F)(F)F)n2)o1`, the melting point lay in the range of 70 to 72 °C.

Take `COc1cc(OC)nc(NC(=O)NS(=O)(=O)c2c([N+](=O)[O-])ccc3c2CCC3)n1`: the melting point was in the range of 162 to 172 °C.

Consider `CCCNC(=O)C1(CCCCO)c2ccccc2-c2ccccc21`, for which the melting point lay in the range of 73 to 75 °C.

The compound `CS(=O)(=O)c1cccc(NC(=O)c2cnn3ccc(-c4ccc(C(F)(F)F)cc4)nc23)c1` registered a melting point of 254 to 255 °C.

`OCc1cnoc1-c1cc(Cl)ccc1Cl`: the melting point was in the range of 51 to 52 °C.

In turn, `O=C(O)CCc1cnoc1-c1ccc(Cl)s1` displayed a melting point of 138 to 139 °C.

Consider `Clc1ccc(-c2cn3ccccc3n2)c(Cl)c1`, for which the melting point was 174 to 177 °C.

Compound `CN(Cc1ccccc1O)c1nc(N(C)Cc2ccccc2O)nc(N(C)Cc2ccccc2O)n1` displayed a melting point of 199 to 200 °C.

Take `Cc1cc(N)c([N+](=O)[O-])cc1NCC(O)CO` (configuration not stated): the melting point stood at 150 °C.

Compound `C=CCCN(CCC=C)Cc1noc(-c2ncn3c2[C@@H]2CCN2C(=O)c2c(Cl)cccc2-3)n1` yielded a melting point of 115 to 120 °C.

Compound `CCCOCCOC(=O)C1=C(C)NC(C)=C([N+](=O)[O-])C1c1cccc([N+](=O)[O-])c1` (configuration not stated) gave a melting point of 161 °C.

With `CN1c2ccccc2C(C)(C)C1CC#N` (configuration not stated), the melting point was 74 to 76 °C.

Regarding `Cc1cccc(C)c1NC(=O)CCS(=O)c1cc(C(C)(C)C)c(O)c(C(C)(C)C)c1` (configuration not stated), the melting point was 162 to 164 °C.

Consider `Cc1ccc(N2CCN(c3c(C)c(C)c4c(c3C)CC(C)(C)O4)CC2)cc1C`, for which the melting point is 137 to 139 °C.

`CCc1c(OC)nc2nc(C(N)=S)cn2c1C` yielded a melting point of 248 to 259 °C.

The compound `COc1ccc(CN(CCN(C)CCCCCCNC(=NCCCOc2cccc(CN3CCCCC3)c2)NC#N)c2ccccn2)cc1` came in with a melting point of 79 °C.

In the case of `Cc1noc2cc3c(cc12)C1(CO3)C(=O)Nc2ccccc21` (configuration not stated), the melting point lay within 226 to 227 °C.

`CSC1C(=O)Nc2c(Oc3ccccc3)cccc21` (configuration not stated) returned a melting point of 149 to 150 °C.

With `C=CCOC(=O)c1cc(NC(=O)OC(C)(C)C)ccc1OCC=C`, the melting point lay in the range of 77 to 78 °C.

Turning to `CCOc1ccc([N+](=O)[O-])c(C=C2NC(=O)NC2=O)c1`, the melting point lay within 243 to 245 °C.

Turning to `S=C(Nc1cccc(Cl)c1)N1CCCSC1c1ccccc1` (configuration not stated), the melting point was 132 to 135 °C.

Take `CC(=O)OC1CSC(Oc2cccc(-c3nccs3)c2)C(OC(C)=O)C1OC(C)=O` (configuration not stated): the melting point came out at 65 °C.

With `O=C(NCC1CC(=O)N(Cc2ccccc2)c2ccccc2N1C(=O)CN1C(=O)c2ccccc2C1=O)OCc1ccccc1` (configuration not stated), the melting point was 219 to 221 °C.

The compound `O=C1[C@H]2CCC[C@H]2N(C(=O)CCCCl)c2ccccc2N1Cc1ccccc1` (relative stereo) registered a melting point of 169 to 170 °C.

For `CC(=O)Oc1cc(OC(C)=O)c(C)c(C(=O)OCC(Cl)(Cl)Cl)c1C`, the melting point lay within 127 to 128 °C.

`CN(C)c1ccc(NC(=O)NC2CCC2)c(C(=O)NCC2CCN(C(c3ccccc3)c3ccccc3)CC2)c1` yielded a melting point of 210 to 212 °C.

Take `Nc1[nH]ncc1-c1cccc(N2CCN(CCO)CC2)c1`: the melting point was 40 to 48 °C.

`CC(C)=NOc1ccc([N+](=O)[O-])cc1` returned a melting point of 104 to 106 °C.

Compound `CCN(CC)C(=O)COc1cc(-c2ccccc2)cc2ccccc12` yielded a melting point of 82 °C.

In the case of `CS(=O)(=O)c1ccc(Cn2ccc(OCc3ccc(F)cc3F)c(Cl)c2=O)cc1`, the melting point is 223 to 225 °C.

The compound `O=S(=O)(NCCCO)c1c(Cl)cc(Cl)cc1Cl` came in with a melting point of 104 to 106 °C.

Regarding `CC(C)Cn1c(C(F)(F)F)nc2ccc(-n3c(=O)cc(C(F)(F)F)n(C)c3=O)cc21`, the melting point lay within 156 to 159 °C.

On to `Cc1ccc2oc(OCC(=O)N(c3ccccc3)C(C)C)nc2c1`, for which the melting point was 108 °C.

The values are drawn from a melting point compilation (Tetko et al.; mined from patent text by program, amines drawn as free bases though some values may be those of a salt).
